Experimental data as given in patent US6613800B1, “Method and compositions for treating psoriasis, eczema, seborrhea and arthritis” (priority 2001, dated 2003).

System: psoriasis
Assay: Case studies: clinical treatment of resistant psoriasis
Format: in vivo, human
Settings: Case No. 9; Methotrexate 5-10 mg per week from April 2001, Psorex stopped; summer to August 2001
Description: The following case studies are presented to show results from clinical trials of the present invention on resistant cases of psoriasis, eczema and seborrhea.
A combination of Psorizide Ultra® and Psorex® was employed in some of these case studies. In others, a combination of Psorizide Ultra® and Fumaric Acid 1× was used. Psorizide Ultra® is a natural mineral homeopathic medication commercially available from Applicant's company, i.e. LOMA LUX Laboratories, 5801 E. 41st Street, Suite 200, Tulsa, Okla. 74135. This prescription drug includes active ingredients of nickel sulfate and potassium bromide.
Psorex® is a scientifically designed supplement containing reagent grade fumaric acid esters. This supplement is commercially available from Ecological Formulas at 1-800-888-4585. Each Psorex® capsule contains 120 mg fumaric acid ester.
Fumaric Acid 1×300 mg tablets are commercially available from B.H.I., 11600 Cochiti Road SE, Albuquerque, N.Mex. 87123-3376. Each Fumaric Acid 1× tablet contains approximately 30 mg of fumaric acid.
The patient is a person with a ten year history of psoriasis of the anogenital region. They had been treated with numerous topical lotions with only limited results. More recently they also developed left knee involvement and flaring of all disease sites due to surgery. They presented November 2000 complaining of itching. […]

## CN(Cc1cnc2nc(N)nc(N)c2n1)c1ccc(C(=O)N[C@@H](CCC(=O)O)C(=O)O)cc1 [Methotrexate®, Methotrexate]
  clinical condition of plaque psoriasis: doing very well through the summer, but by August 2001 the psoriasis was worse
